Measurements as given in the OligoGym collection.
Several values for one entry are separate records, joined by “and”; a condition that tells them apart may be missing. Equal values may be shown once. After the bases stand the sugars from the 5' end (letter, count) and the backbone: PS all phosphorothioate, else s phosphorothioate and o phosphodiester by linkage. Methylation of C is not given here. k = constrained ethyl (cEt); d = 2'-deoxy (DNA)

Biological target: MALAT1
Conditions: ASO, A431, 0.005 µM

| Sequence | target mRNA inhibition |
| --- | --- |
| CTTGTGTTCTCTTGAG (sugars k3 d10 k3, PS) | 13% |
| TGAATTCAACTGGAAG (sugars k3 d10 k3, PS) | 36% |
| TCTGCGGCCCCCCAGT (sugars k3 d10 k3, PS) | 25% |
| GGAGAGGCCAGTTGCG (sugars k3 d10 k3, PS) | -10% |
| TTACACCAGTCCTTTT (sugars k3 d10 k3, PS) | 37% |
| TAGTGTAAAACATTGC (sugars k3 d10 k3, PS) | 35% |
| TGGCATATGCAGATAA (sugars k3 d10 k3, PS) | 69% and 89% |
| GAGGCAAGTCCTCATT (sugars k3 d10 k3, PS) | 11% |
| AACTTATCTGCGGTTT (sugars k3 d10 k3, PS) | 6% |
| ACCTGGGTCAGCTGTC (sugars k3 d10 k3, PS) | 14% |
| CACCTTGAGTCATTTG (sugars k3 d10 k3, PS) | 37% |
| GTTACCAATAATTTCC (sugars k3 d10 k3, PS) | 71% and 50% |
| AAAAAAGGCTTAGCGC (sugars k3 d10 k3, PS) | 0% |
| CAAGTTACATGTTCCC (sugars k3 d10 k3, PS) | 42% |
| TGCCCTTAGCTTTTTG (sugars k3 d10 k3, PS) | 56% |
| CTGAGTGAAGTGTACT (sugars k3 d10 k3, PS) | 48% |
| GAGTGGTTTTATCTAA (sugars k3 d10 k3, PS) | 31% |
| GTACTATAGCATCTGT (sugars k3 d10 k3, PS) | 45% |
| GAAGGATGAAATGCCT (sugars k3 d10 k3, PS) | 7% |
| CCTTTACACCTCAGTA (sugars k3 d10 k3, PS) | 13% |
| GAGTTGAGGCAAGTCC (sugars k3 d10 k3, PS) | 52% |
| TGTCAATTAATGCTAG (sugars k3 d10 k3, PS) | 42% |
| CCCTACTGAAGAGCAT (sugars k3 d10 k3, PS) | 13% |

| Sequence | target mRNA inhibition |
| --- | --- |
| GGAATGGCCAGCCTAT (sugars k3 d10 k3, PS) | 17% |
| GACCTGCCTTCAGGCG (sugars k3 d10 k3, PS) | 13% |
| TCTGACTTTGTATGTA (sugars k3 d10 k3, PS) | 48% |
| CCACGAACTGCTGCTT (sugars k3 d10 k3, PS) | 54% |
| ATCATTAAGCCACTTC (sugars k3 d10 k3, PS) | 53% and 69% |
| CAATTTATAGACCCCT (sugars k3 d10 k3, PS) | -6% |
| AACTGGGAATACTCTT (sugars k3 d10 k3, PS) | 22% |
| CATTTTGCCCTTAGCT (sugars k3 d10 k3, PS) | 54% |
| AAAGACCTCGACACCA (sugars k3 d10 k3, PS) | 15% |
| CGCCAACACAGTTTGC (sugars k3 d10 k3, PS) | 12% |
| TCCCCAATGGAGGTAT (sugars k3 d10 k3, PS) | 9% |
| CGTCATGGATTTCAAG (sugars k3 d10 k3, PS) | 40% |
| GCTTTGTTGTCTCTCC (sugars k3 d10 k3, PS) | 93% and 97% |
| TGCCTACCACTCTAAG (sugars k3 d10 k3, PS) | -10% |
| TATTTAAGAACTCCAC (sugars k3 d10 k3, PS) | 26% |
| ATTGTCTCAATTTGGC (sugars k3 d10 k3, PS) | 63% and 84% |
| AAGTTGGTAATTACTC (sugars k3 d10 k3, PS) | 22% |
| AGCATTCCTTCGGATG (sugars k3 d10 k3, PS) | 14% |
| GCATTTACTTGCCAAC (sugars k3 d10 k3, PS) | 11% |
| AGAGATACCTGTCTGA (sugars k3 d10 k3, PS) | 22% |
| CTTCAACATTTGGCCT (sugars k3 d10 k3, PS) | 18% |
| ATCAAGGATGTATATA (sugars k3 d10 k3, PS) | 0% |
| CCTTATTTAGAGGGCC (sugars k3 d10 k3, PS) | 33% |

| Sequence | target mRNA inhibition |
| --- | --- |
| TAGAGAAGAATCCCCC (sugars k3 d10 k3, PS) | 34% |
| GCACTTATCCCTAACA (sugars k3 d10 k3, PS) | 58% and 40% |
| AGCCCCCCACGGCCCG (sugars k3 d10 k3, PS) | 27% |
| TCCCCCCCGCCTCAGT (sugars k3 d10 k3, PS) | 16% |
| TTAAGAGAAGCCCAGG (sugars k3 d10 k3, PS) | 24% |
| CAATATCTTAGTAACC (sugars k3 d10 k3, PS) | 29% |
| GCTCACAAGGCAAATC (sugars k3 d10 k3, PS) | -4% |
| GCATCAAGGCACTGAT (sugars k3 d10 k3, PS) | 35% |
| CATATTTAACTTCCCC (sugars k3 d10 k3, PS) | 25% |
| AATTTTGAGTATGCTG (sugars k3 d10 k3, PS) | 54% and 71% |
| TGTGATAGTTCAGGGC (sugars k3 d10 k3, PS) | -12% |
| GTGGTTATAGCTTGAC (sugars k3 d10 k3, PS) | 79% and 93% |
| TTTAGAGGGCCTCTAT (sugars k3 d10 k3, PS) | 17% |
| TAGCTTGACAAGCAAT (sugars k3 d10 k3, PS) | 12% |
| TCCAGTCCCTGAAGGT (sugars k3 d10 k3, PS) | 12% |
| TTCCGCTAAGATGCTA (sugars k3 d10 k3, PS) | 9% |
| GACACTTTCCTTGCCC (sugars k3 d10 k3, PS) | 48% |
| GCTGTCAATTAATGCT (sugars k3 d10 k3, PS) | 24% |
| ACTTCCCCTTCTAGCT (sugars k3 d10 k3, PS) | 36% |
| ACCCCCACGCCAACAC (sugars k3 d10 k3, PS) | 23% |
| CTCTGCATCTAGGCCA (sugars k3 d10 k3, PS) | 40% |
| AGCTTATGGAACTTGA (sugars k3 d10 k3, PS) | 16% |
| TATTTCGGCTTCTTTT (sugars k3 d10 k3, PS) | 47% and 65% |

| Sequence | target mRNA inhibition |
| --- | --- |
| GATTTTAAGGTTGCAT (sugars k3 d10 k3, PS) | 55% and 38% |
| ACTATAGCATCTGTGG (sugars k3 d10 k3, PS) | 9% |
| ACCCTCTAAGAGACAT (sugars k3 d10 k3, PS) | 35% |
| ACTTTAAGCCTTCGGT (sugars k3 d10 k3, PS) | 13% |
| TGGACATTGCCTCTTC (sugars k3 d10 k3, PS) | 29% |
| ATCATATTTTAAACGG (sugars k3 d10 k3, PS) | 32% |
| CAAACGAAACATTGGC (sugars k3 d10 k3, PS) | 31% |
| AAAGATTTGAGCTGCA (sugars k3 d10 k3, PS) | -4% |
| ACCTCCGTCATGTTTT (sugars k3 d10 k3, PS) | 43% |
| ATGACCCTACTGAAGA (sugars k3 d10 k3, PS) | 15% |
| ACAAGATTCATGAGTA (sugars k3 d10 k3, PS) | 27% |
| ACCCAGTTTGTCAATA (sugars k3 d10 k3, PS) | 10% |
| ATTTACTTGCCAACAG (sugars k3 d10 k3, PS) | 47% |
| TATTGGTATTAATTCG (sugars k3 d10 k3, PS) | 13% |
| TAATGTCAGCCCAGTA (sugars k3 d10 k3, PS) | 7% |
| TCCAGCATAAAGCTGA (sugars k3 d10 k3, PS) | -9% |
| GTTCAAGTGGCCTTTT (sugars k3 d10 k3, PS) | 22% |
| ACCTGGGCTCCCGGAG (sugars k3 d10 k3, PS) | 19% |
| CTGGTACACCCAGTGG (sugars k3 d10 k3, PS) | 4% |
| GCCCACTCTGATCTGC (sugars k3 d10 k3, PS) | -4% |
| ACCGCACAGCTCGGGC (sugars k3 d10 k3, PS) | 5% |
| GCCAACTAATTGCCAA (sugars k3 d10 k3, PS) | 33% |
| AGACCTCGACACCATC (sugars k3 d10 k3, PS) | 46% |

| Sequence | target mRNA inhibition |
| --- | --- |
| TCAAAATCCTGAATGG (sugars k3 d10 k3, PS) | 38% |
| AGGCTCGATGGAAAAA (sugars k3 d10 k3, PS) | 28% |
| ACTGATTTTAAGGTTG (sugars k3 d10 k3, PS) | 26% |
| TAGTACTATAGCATCT (sugars k3 d10 k3, PS) | 49% |
| ATGCCTACCGCACAGC (sugars k3 d10 k3, PS) | -8% |
| CGGAAATTTTTCTACC (sugars k3 d10 k3, PS) | 8% |
| AGTTACTCCAGCATAA (sugars k3 d10 k3, PS) | 31% |
| GTTTCCTAGCTTGTCT (sugars k3 d10 k3, PS) | 57% |
| TACTATCCCATCACTG (sugars k3 d10 k3, PS) | 42% |
| GGATCCTCTACGCACA (sugars k3 d10 k3, PS) | 19% |
| ACGGGTCATCAAACAC (sugars k3 d10 k3, PS) | 14% |
| CTTGTCTTAGCTTGTT (sugars k3 d10 k3, PS) | 71% and 61% |
| CACTACCATATCCAAA (sugars k3 d10 k3, PS) | 23% |
| GAAGAGCATTGGAGAT (sugars k3 d10 k3, PS) | 49% |
| AGTCCTGCGACTTGCT (sugars k3 d10 k3, PS) | 26% |
| CATTCTAATAGCAGCG (sugars k3 d10 k3, PS) | 51% and 68% |
| GCTAGTCCTCAGGATT (sugars k3 d10 k3, PS) | 47% |
| TACGACTGCTTAAAAC (sugars k3 d10 k3, PS) | 5% |
| TACTTAAATTACTAGC (sugars k3 d10 k3, PS) | 28% |
| CACAGGAACAAGTCCT (sugars k3 d10 k3, PS) | 16% |
| GACAGCTAAGATAGCA (sugars k3 d10 k3, PS) | 12% |
| ATGGCGGACTTTCTCC (sugars k3 d10 k3, PS) | 29% |
